Data published in patent US20230124862A1, “BISMUTH THIOL COMPOUNDS AND COMPOSITIONS AND METHODS OF TREATING MICROBIAL CO-INFECTIONS” (Microbion Corporation, priority 2020, published 2023).

Experiments:
Assay in all cases: Antifungal broth microdilution (Example 13)
Candida glabrata = assay type: cell-based; conditions: complete inhibition
Aspergillus spp. = assay type: cell-based, A. niger, A. terreus, A. fumigatus, A. flavus; conditions: complete inhibition, comparator, time not stated
Candida krusei = assay type: cell-based; conditions: complete inhibition
Candida albicans = assay type: cell-based; conditions: complete inhibition, 24 hr
Candida auris = assay type: cell-based; conditions: complete inhibition

Measured: MIC0

C[C@@H]1[C@H](O)[C@@H](C)/C=C/C=C/C=C/C=C/C=C/C=C/C=C/[C@H](O[C@@H]2O[C@H](C)[C@@H](O)[C@H](N)[C@@H]2O)C[C@@H]2O[C@](O)(C[C@@H](O)C[C@@H](O)[C@H](O)CC[C@@H](O)C[C@@H](O)CC(=O)O[C@H]1C)C[C@H](O)[C@H]2C(=O)O [AMP B]
1 µg/mL: Aspergillus spp.; A. flavus ATCC 22546 | Aspergillus spp.; A. flavus ATCC 204304 | Aspergillus spp.; A. flavus MMX 7935 | Aspergillus spp.; A. fumigatus ATCC 204305 | Aspergillus spp.; A. fumigatus ATCC MYA-3626 | Aspergillus spp.; A. fumigatus MMX 5934 | Aspergillus spp.; A. fumigatus MMX 5938 | Aspergillus spp.; A. fumigatus MMX 5939 | Candida auris; C. auris MMX 9869, FLU-R, VORI-R | Candida auris; C. auris MMX 9870, FLU-R, VORI-R | Candida auris; C. auris MMX 9871, Susceptible
0.25 µg/mL: Candida glabrata; C. glabrata ATCC 90030, Susceptible | Candida glabrata; C. glabrata MMX 7093, FLU-R | Candida glabrata; C. glabrata MMX 7101, FLU-R | Candida glabrata; C. glabrata MMX 7103, CASP-R, MICA-R | Candida glabrata; C. glabrata MMX 7111, Susceptible | Candida glabrata; C. glabrata MMX 7285, CASP-R, MICA-R | Candida glabrata; C. glabrata MMX 7307, CASP-R, MICA-R, FLU-R | Candida glabrata; C. glabrata MMX 7549, Susceptible | Aspergillus spp.; A. niger ATCC 29508 | Aspergillus spp.; A. terreus MMX 8229 | Candida krusei; C. krusei ATCC 14243, Susceptible | Candida krusei; C. krusei MMX 7141, Susceptible | Candida krusei; C. krusei MMX 7155, Susceptible | Candida albicans; C. albicans ATCC 90028, Susceptible | Candida albicans; C. albicans ATCC 204276, MICA-R | Candida albicans; C. albicans ATCC MYA-2732, FLU-R, VORI-I | Candida albicans; C. albicans MMX 7067, FLU-R, VORI-R | Candida albicans; C. albicans MMX 7403, Susceptible | Candida albicans; C. albicans MMX 7424, CASP-R, MICA-R | Candida albicans; C. albicans MMX 7430, Susceptible | Candida albicans; C. albicans MMX 7437, FLU-I | Candida auris; C. auris MMX 9862, Susceptible | Candida auris; C. auris MMX 9864, FLU-R, VORI-R | Candida auris; C. auris MMX 9865, FLU-R, VORI-R | Candida auris; C. auris MMX 9868, FLU-R, VORI-R
0.5 µg/mL: Candida krusei; C. krusei ATCC 6258, MICA-I | Candida krusei; C. krusei ATCC 96685, Susceptible | Candida krusei; C. krusei MMX 7125, Susceptible | Candida krusei; C. krusei MMX 7128, Susceptible | Candida krusei; C. krusei MMX 7153, MICA-R | Candida krusei; C. krusei MMX 7563, Susceptible | Candida krusei; C. krusei MMX 9878, MICA-I, VORI-I | Candida auris; C. auris MMX 9866, FLU-R, VORI-R | Candida auris; C. auris MMX 9867, FLU-R, VORI-R
0.12 µg/mL: Candida glabrata; C. glabrata ATCC MYA-2950, Susceptible | Candida glabrata; C. glabrata MMX 7087, Susceptible | Candida albicans; C. albicans MMX 7053, Susceptible | Candida albicans; C. albicans MMX 7445, FLU-R, VORI-R | Candida auris; C. auris MMX 9863, FLU-R, VORI-R
